Values belong to the compound of their own block, whether it stands above or below them.
Columns and labels:
murine Bcrp1 = target: T1, murine Bcrp1 (Mus musculus, UniProt Q7TMS5); experiment: Transwell transport of temozolomide, MDCKII-Bcrp1 cells, without or with inhibitors; format: in vitro ADME; settings: MDCKII-Bcrp1 cells
T1 construct: expressed in transfected cells; host or cells: MDCKII (canine kidney) cells transduced with murine Bcrp1
T1 sequence (Q7TMS5 1-657): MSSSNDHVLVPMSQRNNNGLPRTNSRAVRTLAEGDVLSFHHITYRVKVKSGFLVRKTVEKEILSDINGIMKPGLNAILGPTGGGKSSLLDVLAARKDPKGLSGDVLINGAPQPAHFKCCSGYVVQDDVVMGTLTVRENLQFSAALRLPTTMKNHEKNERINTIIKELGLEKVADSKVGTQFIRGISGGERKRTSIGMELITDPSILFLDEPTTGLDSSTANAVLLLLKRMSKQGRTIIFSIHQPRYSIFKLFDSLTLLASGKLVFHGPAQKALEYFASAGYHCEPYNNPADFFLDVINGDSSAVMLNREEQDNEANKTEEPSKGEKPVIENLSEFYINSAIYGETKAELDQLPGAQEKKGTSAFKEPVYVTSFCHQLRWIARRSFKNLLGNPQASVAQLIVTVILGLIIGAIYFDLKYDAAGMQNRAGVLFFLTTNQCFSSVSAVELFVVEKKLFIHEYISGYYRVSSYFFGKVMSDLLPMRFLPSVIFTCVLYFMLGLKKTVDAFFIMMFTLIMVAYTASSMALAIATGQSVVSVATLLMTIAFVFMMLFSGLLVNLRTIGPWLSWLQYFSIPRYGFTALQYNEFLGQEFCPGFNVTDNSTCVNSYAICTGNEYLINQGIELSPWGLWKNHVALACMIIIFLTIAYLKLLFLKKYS
Method: The parental LLC pig-kidney (PK1) cell line and sublines transduced with murine Mdr1a or human MDR1 (12) and the parental Madine Darby Canine Kidney (MDCK) and murine Bcrp1 or human BCRP transduced sublines (13) were seeded on Transwell microporous polycarbonate membrane filters (3.0 μm pore size, 24 mm diameter; Costar Corning, N.Y., USA) at a density of 1×10^6 cells per well in 2 ml of MEM medium (Invitrogen Corporation, Carlsbad, Calif.) containing 10% v/v fetal calf serum. Cells were incubated at 37° C. in 5% CO2 for three days with one medium replacement after the first day. Two hours before the start of the experiment the medium in both compartments was replaced with 2 ml of OptiMEM medium (InVitrogen Corp.). At the start of the experiment the medium in the apical or basolateral compartment was replaced with 2 ml of freshly prepared OptiMEM medium containing 40 μg/ml of temozolomide. […] Zosuquidar (LY335979, 5 μM) was always added to the medium when doing experiments with MDCK cell lines to inhibit endogenous canine P-gp. Samples of 50 μl were collected every 30 min, for up to 2 h after start of the experiment. Because temozolomide is instable in medium at 37° C., we replaced one ml of the donor compartment by a freshly prepared aliquot every 30 min. [^3H]-inulin (approximately 7 kBq per well) was added to the same compartment as temozolomide to check the integrity of the cell layer. Wells showing a leakage of more than 1.5% per hour were excluded.
First, we took samples every 30 min for up to 2 h instead of every hour for up to 4 h. Secondly, to maintain adequate temozolomide levels at the donor side throughout the experiment we replaced 1 ml of the 2 ml of medium at the donor side of the transwell at each sampling time by 1 ml of a freshly prepared temozolomide solution in medium.

[1] = test system: intracranial Mel57-luc tumor xenografts; experiment: Efficacy against intracranial Mel57-luc tumor xenografts; format: in vivo, nude mice; settings: wild-type nude mice, elacridar oral 100 mg/kg/day×5 20-30 min before temozolomide oral 100 mg/kg/day×5
Method: Intracranial Mel57-luc (luciferase transfected subline) tumor xenografts in wild-type nude mice (WT) and mdr1ab knockout nude mice (MDR) were established according to the protocol below (see Kemper et al, Eur J Cancer 42:3294-3303, 2006).
The Mel57 cell line (University Medical Centre, Nijmegen, The Netherlands) is a human melanoma cell line and was cultured in MEM (Life Technologies Inc., Breda, The Netherlands) supplemented with 10% foetal calf serum, non-essential amino acids, streptomycin, penicillin and sodium pyruvate (all Life Technologies), and incubated at 37° C. and 5% CO2 in humidified air. The cell line was further transfected by standard protocols with lipofectamine using a pBS vector containing a β-actin driven luciferase gene coupled via an internal ribosome […] to GFP. After expansion, GFP bright cells were sorted to single cells by FACS, expanded and sublines tested for luciferase expression by an in vitro bioluminescence assay (Promega, Benelux BV, Leiden, The Netherlands). Three to five sublines showing the highest luminescence activity were tested in vivo for tumour take and intracranial growth behaviour. To retrieve tumour cells for injection, the cell culture was trypsinised (trypsin 0.05%; EDTA 0.02%, Life Technologies), washed two times with Hanks Balanced Saline Solution (HBSS, Life Technologies Inc.), counted and resuspended in an appropriate volume of HBSS. The single cell suspension was kept on ice until injection. […]
Mel57-luc cells (100,000 cells/2 μl) were injected stereotactically in the brain as described in detail in Kemper et al^14. […] The amount of bioluminescence in each animal was calculated relative to the first measurement when therapy was initiated (arbitrarily set at 100%) and was log converted prior to data analysis. Tumor volume was measured by bioluminescence activity (see Kemper et al, Eur J Cancer 42:3294-3303, 2006).

[2] = in vivo; cited from earlier work
P-gp [3] = target: T2, P-gp (Mus musculus, UniProt P21447); settings: Mdr1ab knockout mice; cited from earlier work
T2 construct: host or cells: mice (Mdr1ab knockout versus wild type)

P-gp [4] = experiment: Transwell control experiments with radioactively labeled P-gp and BCRP substrates; format: in vitro ADME; settings: inhibitor 20 μM, radiolabeled substrates, results not shown
Method: Similar experiments were conducted in the parental canine MDCK cells and its transduced murine Bcrp1 or human BCRP sublines. […] Together with these experiments we ran control experiments using well-established P-gp and BCRP substrates that were available to us as radioactively labeled compounds (^14C-trabectedin and ^14C-Indisulan, or ^14C-topotecan). […] Moreover, the integrity of all monolayers was checked using ^3H-inuline as marker compound. Wells showing more than 1.5% translocation of inuline per 30 min were considered to be leaky and excluded from the analysis.

P-gp and BCRP = experiment: Temozolomide brain and plasma levels at 2 h with or without oral inhibitor; format: in vivo; settings: wild-type mice, inhibitor 100 mg/kg oral, 2 h after temozolomide
Method: The mice were anesthetized with metoxyflurane and blood samples were obtained by cardiac puncture and collected on ice in tubes containing potassium EDTA as anticoagulant. […] Immediately after cardiac puncture the mice were killed by cervical dislocation and the brains were dissected and placed on ice. Within 60 min they were weighed and homogenized in 3 ml of ice-cold 1% of BSA in 0.05 M phosphate buffer adjusted to pH 2 and stored at −20° C. until further analysis. […] The brain-to-plasma ratio was calculated for each individual animal. The two-sided unpaired Student's t-test was used for statistical analysis of AUC values. Bonferroni's test for multiple comparisons was calculated using SPSS (v12.0.1; […]

T2 sequence (P21447 whole entry): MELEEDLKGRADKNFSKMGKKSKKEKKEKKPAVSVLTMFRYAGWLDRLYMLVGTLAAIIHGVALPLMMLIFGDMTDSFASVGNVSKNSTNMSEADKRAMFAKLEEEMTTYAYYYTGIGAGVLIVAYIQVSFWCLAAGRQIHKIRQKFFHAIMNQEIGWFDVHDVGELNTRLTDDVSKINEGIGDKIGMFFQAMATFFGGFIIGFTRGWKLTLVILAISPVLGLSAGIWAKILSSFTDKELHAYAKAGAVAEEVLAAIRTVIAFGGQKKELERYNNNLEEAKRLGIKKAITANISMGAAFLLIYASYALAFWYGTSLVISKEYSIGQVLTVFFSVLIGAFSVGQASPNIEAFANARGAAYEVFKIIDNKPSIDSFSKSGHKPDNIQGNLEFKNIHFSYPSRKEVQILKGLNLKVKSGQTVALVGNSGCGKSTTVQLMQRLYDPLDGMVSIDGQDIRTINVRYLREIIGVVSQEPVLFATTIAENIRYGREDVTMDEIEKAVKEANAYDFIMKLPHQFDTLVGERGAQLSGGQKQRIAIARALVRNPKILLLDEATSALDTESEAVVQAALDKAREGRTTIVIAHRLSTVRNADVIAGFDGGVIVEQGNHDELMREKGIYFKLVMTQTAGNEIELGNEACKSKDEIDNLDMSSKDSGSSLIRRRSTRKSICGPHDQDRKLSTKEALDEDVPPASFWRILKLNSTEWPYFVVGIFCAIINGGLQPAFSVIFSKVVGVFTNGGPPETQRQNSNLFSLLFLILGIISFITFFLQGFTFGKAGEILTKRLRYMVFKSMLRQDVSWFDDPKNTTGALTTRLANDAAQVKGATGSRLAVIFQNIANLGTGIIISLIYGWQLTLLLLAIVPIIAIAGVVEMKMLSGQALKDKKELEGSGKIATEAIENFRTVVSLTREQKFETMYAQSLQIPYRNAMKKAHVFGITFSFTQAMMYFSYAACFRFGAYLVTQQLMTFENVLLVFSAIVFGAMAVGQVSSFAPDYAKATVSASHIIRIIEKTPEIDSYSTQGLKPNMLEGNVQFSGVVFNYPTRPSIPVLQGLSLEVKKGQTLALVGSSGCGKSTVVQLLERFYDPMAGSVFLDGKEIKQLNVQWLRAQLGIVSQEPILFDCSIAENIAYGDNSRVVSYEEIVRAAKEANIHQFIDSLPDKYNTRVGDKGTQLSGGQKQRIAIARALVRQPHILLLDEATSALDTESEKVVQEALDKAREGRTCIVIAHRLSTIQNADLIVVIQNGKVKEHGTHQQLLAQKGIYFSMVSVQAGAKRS

Compound: Cc1ccc(NC(=O)c2ccc(CN3CCN(C)CC3)cc2)cc1Nc1nccc(-c2cccnc2)n1 [imatinib]
oral bioavailability [2]: > 90%

Compound: CC(=O)O[C@H]1C(=O)[C@@]2(C)[C@H]([C@H](OC(=O)c3ccccc3)[C@]3(O)C[C@H](OC(=O)[C@H](O)[C@@H](NC(=O)c4ccccc4)c4ccccc4)C(C)=C1C3(C)C)[C@]1(OC(C)=O)CO[C@@H]1C[C@@H]2O [paclitaxel]
brain-to-plasma ratio relative to wild-type controls (P-gp [3]): more than 5 fold

Compound: CO[C@@H]1[C@@H](OC(N)=O)[C@@H](O)[C@H](Oc2ccc3c(O)c(NC(=O)c4ccc(O)c(CC=C(C)C)c4)c(=O)oc3c2C)OC1(C)C [novobiocin]
effect on Bcrp1 mediated transport of temozolomide (murine Bcrp1; inhibitor 50 μM): not sufficient

Compound: COc1cc2ncnc(Nc3ccc(F)c(Cl)c3)c2cc1OCCCN1CCOCC1 [gefitinib]
effect on Bcrp1 mediated transport of temozolomide (murine Bcrp1; inhibitor 10 μM): (almost) completely abrogated | inhibition of P-gp mediated transport (P-gp [4]): sufficient | effect on temozolomide plasma level (P-gp and BCRP): significantly increased

The next lines start with results.

effect on Bcrp1 mediated transport of temozolomide (murine Bcrp1; inhibitor 5 μM): (almost) completely abrogated
Compound: COc1cc2c(cc1OC)CN(CCc1ccc(NC(=O)c3cccc4c(=O)c5cccc(OC)c5[nH]c34)cc1)CC2 [elacridar]
efficacy of temozolomide with elacridar versus temozolomide alone [1]: more effective than temozolomide alone

effect on Bcrp1 mediated transport of temozolomide (murine Bcrp1; inhibitor 10 μM): (almost) completely abrogated
Compound: C#Cc1cccc(Nc2ncnc3cc(OCCOC)c(OCCOC)cc23)c1 [erlotinib]

Reference: patent US20090170880A1, “Methods and Means for the Treatment of Cancer” (priority 2007, published 2009)
